From patent US11844823B2, “Beta-hairpin peptidomimetic with elastase inhibitory activity and aerosol dosage forms thereof” (POLYPHOR AG, priority 2016, dated 2023)
Non-standard residues stand in square brackets, D forms with d. Residues, ends and D or L forms follow the SMILES beside them. Gly(octyl) = CCCCCCCC[C@H](N)C(=O)O

Tests used:
cynomolgus monkeys = experiment: GLP-compliant 28-day inhalation toxicity study in monkeys; type: in vivo, cynomolgus monkey
Protocol: In a GLP-compliant 28-day inhalation toxicity study in cynomolgus monkeys, conducted by Charles River Laboratories Preclinical Services, Tranent, Edinburgh, UK, the formulation described in Example 2 and dilutions thereof as well as the vehicle were administered using the Pari eFlow® XL 30 nebulizer device (Pari Pharma, Starnberg, Germany) with an oro-nasal inhalation mask for 60 min per day for 28 days, followed by a 2-week recovery period. […] In total five males and five females were used for each dose of the toxicity study including recovery. Parameters assessed included clinical signs, body weights, electrocardiology, ophthalmic examination, clinical pathology, toxicokinetic parameters in the plasma, gross necropsy findings, organ weights and histopathologic examinations.

[1] = molecular target: T1, human neutrophil elastase (Homo sapiens, UniProt P08246); experiment: Phase-1b study, active neutrophil elastase in sputum by FRET elastase assay; type: in vivo; conditions: CF patients; response appeared independent of dose; returned to baseline at 24 h
T1 construct: from tissue; host or cells: spontaneous sputum of patients with cystic fibrosis (PBS-soluble fraction)
T1 sequence (P08246 30-247 limits assumed): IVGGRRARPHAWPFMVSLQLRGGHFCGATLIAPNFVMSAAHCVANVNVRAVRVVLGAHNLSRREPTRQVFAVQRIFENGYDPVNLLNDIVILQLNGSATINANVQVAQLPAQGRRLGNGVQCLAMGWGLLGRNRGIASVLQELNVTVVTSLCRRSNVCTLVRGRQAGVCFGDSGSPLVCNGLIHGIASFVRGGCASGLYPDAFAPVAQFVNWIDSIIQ
Protocol: The pharmacodynamic effect of ascending single doses of active compound was investigated by evaluation of neutrophil elastase (NE) activity in sputum using FRET (fluorescence resonance energy transfer) assay after PBS aliquotation and freezing.
On the day of screening, if possible, for baseline assessment of NE activity, on Day −1 as soon as possible after the subject's arrival at the study site for baseline assessment of NE activity, on Day 1 in the period of time between 1 h and 3 h after start of inhalation, and in the morning of Day 2, at approx. 24 h after start of inhalation.
For evaluation of NE activity in sputum, at first, the weight of the sputum sample was determined and 8 mL cold phosphate-buffered saline (PBS) per gram purified sputum was added. […]
The NE activity in sputum was evaluated by using a FRET elastase assay adapted from an assay described in Nature Protocols, 2008, 3, 991 (B. Korkmaz, S. Attucci, M. A. Juliano et al.) and validated by MLM Medical Labs GmbH, Mönchengladbach, Germany.
The assay is based on the reaction of human neutrophil elastase with the substrate 2Abz-Ala-Pro-Glu-Glu-Ile-Met-Arg-Arg-Gln-Tyr(3NO2)—OH (GeneCust Europe S.A., Ellange, Luxembourg, #P160301-SY452824). […] The product of the reaction is detected through fluorescence measurement and the initial reaction velocity is determined. […]

neutrophil elastase = experiment: Previous intratracheal study in the LPS/fMLP rat model; type: in vivo; conditions: intratracheal doses of 0.03 to 3 mg/kg
Text: The doses of fMLP and the time points were chosen based upon published data (see e.g. S. Yasui, A. Nagai, K. Aoshiba et al., Eur. Respir. J., 1995, 8, 1293; T. Yang, J. Zhang, K. Sun et al., Inflamm. Res. 2012, 61, 563; R. Corteling, D. Wyss, A. Trifilieff, BMC Pharmacology, 2002, 2, 1) and experience at Envigo CRS Limited. The dose selection of the drug was based on a previous intratracheal study at Envigo CRS Limited.

rats = experiment: GLP-compliant 28-day inhalation toxicity study in rats; type: in vivo, rat
Protocol: In a GLP-compliant 28-day inhalation toxicity study in rats, conducted by Charles River Laboratories Preclinical Services, Tranent, Edinburgh, UK, the formulation described in Example 2 and dilutions thereof as well as the vehicle were administered using the Pari eFlow® XL 30 nebulizer device (Pari Pharma, Starnberg, Germany) for 100 min per day for 28 days, followed by a 2-week recovery period. […] Ten animals were used for the main toxicity study, and 5 additional animals for the recovery phase. Parameters assessed included clinical signs, body weights, food consumption, ophthalmic examination, clinical pathology, gross necropsy findings, organ weights and histopathologic examinations. […] This was associated with reduction in food consumption in treated animals. There was a good recovery in body weight gain during the recovery period between day 28 and 42.
These changes resolved during the recovery period and were considered a non-adverse, adaptive response to mild irritation. […] This slight increase in macrophage accumulation was considered a nonspecific response to the inhalation of high concentrations of material exceeding the clearance capacity of the lung.

CCCCCCCC[C@@H]1NC(=O)[C@@H]2CCCN2C(=O)[C@H]2CCCN2C(=O)[C@H](Cc2ccc(O)cc2)NC(=O)[C@H](CCCCN)NC(=O)[C@H](CCC(N)=O)NC(=O)[C@@H]2CCCN2C(=O)[C@@H]2CCCN2C(=O)[C@H]([C@@H](C)CC)NC(=O)[C@H](CO)NC(=O)[C@H](C)NC(=O)[C@H]([C@@H](C)O)NC(=O)[C@H](CCC(=O)O)NC1=O [cyclo(-OctG-Glu-Thr-Ala-Ser-Ile-Pro-Pro-Gln-Lys-Tyr-^DPro-Pro-)] (cyclo([Gly(octyl)]ETASIPPQKY[dP]P))
histopathologic findings (cynomolgus monkeys; cynomolgus monkey, in vivo): increased numbers of alveolar macrophages, perivascular/peribronchiolar infiltrates, and granular eosinophilic deposits in the lung and lymphoid hyperplasia in the tracheobronchial lymph nodes
body weight, clinical signs, ophthalmic, electrocardiographic findings, urinary parameters (cynomolgus monkeys; monkey, 11.2, 30.1 and 112 mg/kg/day): no body weight changes, clinical signs, ophthalmic or electrocardiographic findings or changes in urinary parameters attributable to drug treatment
mean concentration of active NE in sputum after single-dose inhalation [1]: strongly decreased
efficacy in LPS/fMLP animal model (neutrophil elastase): efficacious
clinical signs or ophthalmic findings (rats; rat, 11, 53 and 119 mg/kg/day): no clinical signs or ophthalmic findings
histopathology of the larynx (rats; rat, in vivo): focal minimal squamous metaplasia without cellular atypia of dysplasia
organ weights or gross findings (rats; rat, in vivo): no treatment-related changes
clinical pathology findings considered toxicologically relevant (rats; rat, haematology, coagulation, clinical chemistry, urinalysis): no findings
